Data reported in patent publication US20110130286A1, “Piperazine Compounds with Herbicidal Effect” (BASF SE, priority 2008, published 2011).

How the values were obtained:
[1] = tested on: ALOMY; assay: greenhouse test, pre-emergence treatment; format: in vivo, Alopecurus agrestis; settings: for herbicidal activity against ALOMY: application rate 0.125 kg/ha, comparative test
Excerpt: (§1) The culture containers used were plastic flowerpots containing loamy sand with approximately 3.0% of humus as the substrate. The seeds of the test plants were sown separately for each species.
(§2) For the pre-emergence treatment, the active compounds, which had been suspended or emulsified in water, were applied directly after sowing by means of finely distributing nozzles. The containers were irrigated gently to promote germination and growth and subsequently covered with transparent plastic hoods until the plants had rooted. This cover caused uniform germination of the test plants, unless this has been impaired by the active compounds.
(§3) Depending on the species, the plants were kept at 10-25° C. or 20-35° C. The test period extended over 2 to 4 weeks. During this time, the plants were tended, and their response to the individual treatments was evaluated.
(§4) Evaluation was carried out using a scale from 0 to 100. 100 means no emergence of the plants, or complete destruction of at least the aerial moieties, and 0 means no damage, or normal course of growth. A good herbicidal activity is given at values of at least 70 and a very good herbicidal activity is given at values of at least 85.
(§5) The respective stated components A and B were formulated as a 5% by weight strength or 10% by weight strength emulsion concentrate, or a commercial formulation of component B was used, and, with addition of the amount of solvent system, introduced into the spray liquor used for applying the active compound. In the examples, the solvent used was water.
(§6) The test period extended over 20 or 21 days. During this time, the plants were tended, and their reactions to the treatments with active compound were monitored.
(§7) In the examples below, using the method of S. R. Colby (1967) “Calculating synergistic and antagonistic responses of herbicide combinations”, Weeds 15, p. 22ff., the value E, which is expected if the activity of the individual active compounds is only additive, was calculated.
(§8) What was evaluated was the damage by the chemical compositions using a scale of from 0 to 100%, in comparison to the untreated control plants. 0 means no damage, and 100 means complete destruction of the plants.

[2] = tested on: APESV; assay: greenhouse test, pre-emergence treatment; format: in vivo, Apera spica-venti; settings: for herbicidal activity against APESV: application rate 0.125 kg/ha, comparative test
Excerpt: as §1, §2, §3, §4, §5, §6, §7, §8

[3] = tested on: ECHCG; assay: greenhouse test, pre-emergence treatment; format: in vivo, Echinochloa crus-galli
Excerpt: as §1, §2, §3, §4, §5, §6, §7, §8

[4] = tested on: AVEFA; assay: greenhouse test, post-emergence treatment; format: in vivo, Avena fatua; settings: application rate 1.0 kg/ha, scale from 0 to 100
Excerpt: as §1
(§9) For the post-emergence treatment, the test plants were first grown to a height of 3 to 15 cm, depending on the plant habit, and then treated with the active compounds which had been suspended or emulsified in water. For this purpose, the test plants were either sown directly and grown in the same containers, or they were first grown separately as seedlings and transplanted into the test containers a few days prior to treatment.
as §3, §4

[5] = tested on: ECHCG; assay: greenhouse test, post-emergence treatment; format: in vivo, Echinochloa crus-galli; settings: application rate 1.0 kg/ha, scale from 0 to 100
Excerpt: as §1, §9, §3, §4

[6] = tested on: LOLMU; assay: greenhouse test, post-emergence treatment; format: in vivo, Lolium multiflorum; settings: application rate 1.0 kg/ha, scale from 0 to 100
Excerpt: as §1, §9, §3, §4

[7] = tested on: BRAPL; assay: greenhouse test, pre-emergence treatment; format: in vivo, Brachiaria plantaginea
Excerpt: as §1, §2
(§10) Depending on the species, the plants were kept at 10-25° C. or 20-35° C. […] During this time, the plants were tended, and their response to the individual treatments was evaluated. […]
as §6, §7
(§11) What was evaluated was the damage by the chemical compositions using a scale of from 0 to 100%, in comparison to the untreated control plants. […]

[8] = tested on: ABUTH; assay: greenhouse test, pre-emergence treatment; format: in vivo, Abutilon theophrasti
Excerpt: as §1, §2, §10, §6, §7, §11

[9] = tested on: VIOAR; assay: greenhouse test, pre-emergence treatment; format: in vivo, Viola arvensis
Excerpt: as §1, §2, §10, §6, §7, §11

[10] = tested on: BROIN; assay: greenhouse test, pre-emergence treatment; format: in vivo, Bromus inermis
Excerpt: as §1, §2, §3, §5, §6, §7, §8

[11] = tested on: SETVI; assay: greenhouse test, pre-emergence treatment; format: in vivo, Setaria viridis
Excerpt: as §1, §2, §10, §6, §7, §11

[12] = tested on: LAMPU; assay: greenhouse test, pre-emergence treatment; format: in vivo, Lamium purpureum
Excerpt: as §1, §2, §10, §6, §7, §11

[13] = tested on: ALOMY; assay: greenhouse test, post-emergence treatment; format: in vivo, Alopecurus agrestis
Excerpt: as §1, §9, §10, §6, §7, §11

[14] = tested on: APESV; assay: greenhouse test, post-emergence treatment; format: in vivo, Apera spica-venti
Excerpt: as §1, §9, §10, §6, §7, §11

[15] = tested on: POLCO; assay: greenhouse test, post-emergence treatment; format: in vivo, Fallopia convolvulus
Excerpt: as §1, §9, §10, §6, §7, §11

[16] = tested on: BROIN; assay: greenhouse test, post-emergence treatment; format: in vivo, Bromus inermis
Excerpt: as §1, §9, §10, §6, §7, §11

[17] = tested on: CHEAL; assay: greenhouse test, post-emergence treatment; format: in vivo, Chenopodium album
Excerpt: as §1, §9, §10, §6, §7, §11

[18] = tested on: POLCO; assay: greenhouse test, pre-emergence treatment; format: in vivo, Fallopia convolvulus
Excerpt: as §1, §2, §10, §6, §7, §11

[19] = application rate 0.125 kg/ha, comparative test

CN1C(=O)C(Cc2ccccc2)N(C)C(=O)/C1=C/c1cccnc1C#N (stereo not drawn) [Ex. 14, reference compound]
herbicidal activity against ALOMY [1]: no herbicidal activity
herbicidal activity against APESV [2]: 90%
herbicidal activity against ECHCG [3, 19]: no herbicidal activity

CN1C(=O)C(C)(Cc2ccccc2)N(C)C(=O)C1=Cc1cccnc1Cl (stereo not drawn) [Example 3, 3-benzyl-6-[1-(2-chloropyridin-3-yl)methylidene]-1,3,4-tri-methylpiperazine-2,5-dione]
melting point: 146 °C

CN1C(=O)C(C)(Cc2ccccc2)N(C)C(=O)C1=Cc1cccnc1Br (racemic) [I-1]
herbicidal activity against AVEFA [4]: very good (a very good herbicidal activity is given at values of at least 85)
herbicidal activity against ECHCG [5]: very good (a very good herbicidal activity is given at values of at least 85)
herbicidal activity against LOLMU [6]: very good (a very good herbicidal activity is given at values of at least 85)

CC(C)N(C)S(=O)(=O)NC(=O)c1cc(-n2c(=O)cc(C(F)(F)F)n(C)c2=O)c(F)cc1Cl [saflufenacil, reference compound]
Herbicidal activity in % after 20 days against ECHCG ([3]; 6.25 g/ha a.s.): 0%
Herbicidal activity in % after 20 days against BRAPL ([7]; 6.25 g/ha a.s.): 35%
Herbicidal activity in % after 20 days against ABUTH ([8]; 6.25 g/ha a.s.): 90%
Herbicidal activity in % after 20 days against VIOAR ([9]; 6.25 g/ha a.s.): 80%

CC(C)CN1C(=O)C(=Cc2cccnc2Br)N(C)C(=O)C1(C)Cc1ccccc1 (racemic) [I-463]
herbicidal activity against ECHCG ([3]; application rate 0.5 kg/ha, scale from 0 to 100): good (A good herbicidal activity is given at values of at least 70)

CN1C(=O)C(C)(Cc2ccccc2)N(C)C(=O)C1=Cc1cccnc1C#N (stereo not drawn) [Example 4, 3-(5-benzyl-1,4,5-trimethyl-3,6-dioxopiperazin-2-ylidene-methyl)pyridine-2-carbonitrile]
melting point: 163 °C

Cn1nc(C(F)(F)F)c(CS(=O)(=O)C2=NOC(C)(C)C2)c1OC(F)F [pyroxasulfone, reference compound]
Herbicidal activity in % after 20 days against ALOMY ([1]; 12.5 g/ha a.s.): 90%
Herbicidal activity in % after 20 days against BROIN ([10]; 12.5 g/ha a.s.): 65%
Herbicidal activity in % after 20 days against SETVI ([11]; 12.5 g/ha a.s.): 90%
Herbicidal activity in % after 20 days against LAMPU ([12]; 12.5 g/ha a.s.): 80%
Herbicidal activity in % after 20 days against ALOMY ([13]; 12.5 g/ha a.s.): 85%
Herbicidal activity in % after 20 days against APESV ([14]; 12.5 g/ha a.s.): 80%
Herbicidal activity in % after 20 days against POLCO ([15]; 12.5 g/ha a.s.): 40%

CCC(CC)Nc1c([N+](=O)[O-])cc(C)c(C)c1[N+](=O)[O-] [pendimethalin, reference compound]
Herbicidal activity in % after 20 days against APESV ([2]; 250 g/ha a.s.): 95%
Herbicidal activity in % after 20 days against BROIN ([16]; 250 g/ha a.s.): 0%
Herbicidal activity in % after 20 days against CHEAL ([17]; 250 g/ha a.s.): 75%
Herbicidal activity in % after 20 days against BROIN ([10]; 250 g/ha a.s.): 40%
Herbicidal activity in % after 20 days against POLCO ([18]; 250 g/ha a.s.): 70%

CN1C(=O)C(C)(Cc2ccccc2)N(C)C(=O)/C1=C/c1cccnc1C#N (stereo not drawn) [I-2]
Herbicidal activity in % after 20 days against ALOMY ([1]; 62.5 g/ha a.s.): 65%
herbicidal activity against ALOMY [1]: 75%
Herbicidal activity in % after 20 days against APESV ([2]; 125 g/ha a.s.): 95%
herbicidal activity against APESV [2]: 100%
Herbicidal activity in % after 20 days against ECHCG ([3]; 62.5 g/ha a.s.): 40%
herbicidal activity against ECHCG [3, 19]: 80%
Herbicidal activity in % after 20 days against BROIN ([16]; 125 g/ha a.s.): 45%
Herbicidal activity in % after 20 days against CHEAL ([17]; 125 g/ha a.s.): 70%
Herbicidal activity in % after 20 days against BROIN ([10]; 62.5 g/ha a.s.): 20%
Herbicidal activity in % after 20 days against BROIN ([10]; 125 g/ha a.s.): 80%
Herbicidal activity in % after 20 days against POLCO ([18]; 125 g/ha a.s.): 80%
Herbicidal activity in % after 20 days against BRAPL ([7]; 62.5 g/ha a.s.): 65%
Herbicidal activity in % after 20 days against ABUTH ([8]; 62.5 g/ha a.s.): 0%
Herbicidal activity in % after 20 days against VIOAR ([9]; 62.5 g/ha a.s.): 60%
Herbicidal activity in % after 20 days against SETVI ([11]; 62.5 g/ha a.s.): 90%
Herbicidal activity in % after 20 days against LAMPU ([12]; 62.5 g/ha a.s.): 40%
Herbicidal activity in % after 20 days against ALOMY ([13]; 62.5 g/ha a.s.): 45%
Herbicidal activity in % after 20 days against APESV ([14]; 62.5 g/ha a.s.): 40%
Herbicidal activity in % after 20 days against POLCO ([15]; 62.5 g/ha a.s.): 40%
melting point: 163 °C
